The results in this text go back to patent US20170152263A1, “Substituted Indazole Compounds as IRAK4 Inhibitors” (AURIGENE DISCOVERY TECHNOLOGIES LIMITED, priority 2014, published 2017).

Where a name gives a salt, the structure may show the parent alone.

In this assay the target is T1, recombinant IRAK-4 kinase (Homo sapiens, UniProt Q9NWZ3).
T1 construct: purchased Millipore, USA
T1 sequence (Q9NWZ3 1-460): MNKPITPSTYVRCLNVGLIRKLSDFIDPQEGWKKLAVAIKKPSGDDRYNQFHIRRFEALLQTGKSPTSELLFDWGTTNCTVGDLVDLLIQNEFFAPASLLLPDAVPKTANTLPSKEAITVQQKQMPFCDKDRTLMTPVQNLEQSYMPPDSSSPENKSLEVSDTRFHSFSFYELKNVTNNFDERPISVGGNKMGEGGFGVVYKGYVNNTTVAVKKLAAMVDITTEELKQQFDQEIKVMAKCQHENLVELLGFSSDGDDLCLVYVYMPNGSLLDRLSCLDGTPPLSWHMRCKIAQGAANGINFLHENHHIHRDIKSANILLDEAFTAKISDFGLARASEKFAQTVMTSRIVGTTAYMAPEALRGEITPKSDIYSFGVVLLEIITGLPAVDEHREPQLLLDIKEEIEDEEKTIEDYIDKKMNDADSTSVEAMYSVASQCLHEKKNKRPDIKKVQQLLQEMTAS
The assay can be described thus: IRAK-4 biochemical assay (TR-FRET). The conditions noted are these: IRAK-4 enzyme, 20 μM ATP; for inhibition at 0.1 µM: compound at 0.1 μM; for inhibition at 1 µM: compound at 1 μM; for IC50: dose response. Here is the method:
Compounds were tested for their potential to inhibit IRAK-4 enzyme in a TR-FRET assay using recombinant IRAK-4 kinase from Millipore, USA. The assay buffer was 50 mM Tris-HCl pH 7.5, 20 mM MgCl2, 1 mM EGTA, 2 mM DTT, 3 mM MnCl2 and 0.01% Tween 20.5 ng of IRAK-4 kinase was used for the assay. After pre-incubation of enzyme with test compound for 30 minutes at room temperature, a substrate mixture containing 100 nM Biotin Histone H3 (Millipore, USA) and 20 μM ATP (Sigma, USA) was added and the reaction was incubated for 30 min. Post incubation, the reaction was stopped by the addition of stop mix containing 40 mM EDTA, 1 nM of Europium-Anti-Phospho-Histone H3 (Ser10) antibody (Perkin Elmer, USA) and 20 nM SureLight Allophycocyanin-Streptavidin (Perkin Elmer, USA). The fluorescence emission at 615 nm and 665 nm were measured at an excitation of 340 nm and the percent inhibition was estimated from the ratio of the fluorescence intensities [(F665/F615)×10000]. […] The IC50 values were estimated by fitting the dose-response data to sigmoidal dose response (variable slope), curve fitting program using Graphpad Prism software Version 6.01.

Usually inhibition stands for how much of the control response was suppressed. By IC50 is commonly meant the concentration that gives 50% inhibition. On to `Cn1ncc2cc(N3CC[C@@H](O)C3)c(NC(=O)c3cccc(N4CC[C@H](O)C4)n3)cc21` [Example 24, 6-((S)-3-hydroxypyrrolidin-1-yl)—N—(5-((R)-3-hydroxypyrrolidin-1-yl)-1-methyl-1H-indazol-6-yl)picolinamide], for which the inhibition at 0.1 µM is 33%, the inhibition at 1 µM was 80% and the half-inhibitory concentration (IC50) lay in the range of 100 to 250 nM.
In the same order, the values of `Cn1ncc2cc(N3CC[C@H](O)C3)c(NC(=O)c3cccc(N4CC[C@H](O)C4)n3)cc21` [Example 25, 6-((S)-3-hydroxypyrrolidin-1-yl)—N—(5-((S)-3-hydroxypyrrolidin-1-yl)-1-methyl-1H-indazol-6-yl)picolinamide] are 24%, 71% and > 250 nM.
On the same counts, the results for `Cn1ncc2cc(N3CC[C@H](O)C3)c(NC(=O)c3coc(-c4ccnc5[nH]ccc45)n3)cc21` [Example 26, (S)—N—(5-(3-hydroxypyrrolidin-1-yl)-1-methyl-1H-indazol-6-yl)-2-(1H-pyrrolo[2,3-b]pyridin-4-yl)oxazole-4-carboxamide] are 96%, 92% and < 100 nM.
In the same order, the values of `Cc1cc(-c2nc(C(=O)Nc3cc4[nH]ncc4cc3N3CC[C@H](O)C3)co2)ccn1` [Example 27, (S)—N—(5-(3-hydroxypyrrolidin-1-yl)-1H-indazol-6-yl)-2-(2-methylpyridin-4-yl)oxazole-4-carboxamide] are 88%, 97% and > 250 nM.
Regarding `Cn1ncc2cc(N3CC[C@H](O)C3)c(NC(=O)c3coc(-c4ccnc(N)c4F)n3)cc21` [Example 28, (S)-2-(2-amino-3-fluoropyridin-4-yl)—N—(5-(3-hydroxypyrrolidin-1-yl)-1-methyl-1H-indazol-6-yl)oxazole-4-carboxamide], the inhibition at 0.1 µM is 96%, the inhibition at 1 µM came to 98% and the IC50 was < 100 nM.
Take `Cn1ncc2cc(N3CC[C@@H](O)C3)c(NC(=O)c3coc(-c4cccnc4N)n3)cc21` [Example 29, (R)-2-(2-aminopyridin-3-yl)—N—(5-(3-hydroxypyrrolidin-1-yl)-1-methyl-1H-indazol-6-yl)oxazole-4-carboxamide hydrochloride]: the inhibition at 0.1 µM amounted to 14%, the inhibition at 1 µM stood at 95% and the half-inhibitory concentration (IC50) was < 100 nM.
As to `CN1CCN(c2nc(C(=O)Nc3cc4c(cnn4C)cc3N3CC[C@H](O)C3)co2)CC1` [Example 30, (S)—N—(5-(3-hydroxypyrrolidin-1-yl)-1-methyl-1H-indazol-6-yl)-2-(4-methylpiperazin-1-yl)oxazole-4-carboxamide hydrochloride], the inhibition at 0.1 µM turned out to be 0% and the inhibition at 1 µM amounted to 20%.
In the same order, the values of `Cn1ncc2cc(N3CC[C@H](O)C3)c(NC(=O)c3coc(N4CCNCC4)n3)cc21` [Example 31, (S)—N—(5-(3-hydroxypyrrolidin-1-yl)-1-methyl-1H-indazol-6-yl)-2-(piperazin-1-yl)oxazole-4-carboxamide hydrochloride] are 0% and 37%.
Turning to `CCn1ncc2cc(N3CC[C@H](O)C3)c(NC(=O)c3coc(-c4ccnc(C)c4)n3)cc21` [Example 32, (S)—N—(1-ethyl-5-(3-hydroxypyrrolidin-1-yl)-1H-indazol-6-yl)-2-(2-methylpyridin-4-yl)oxazole-4-carboxamide hydrochloride], the inhibition at 0.1 µM came out at 62%, the inhibition at 1 µM worked out at 95% and the IC50 is < 100 nM.
Regarding `Cc1cc(-c2nc(C(=O)Nc3cc4c(cnn4C4CC4)cc3N3CC[C@H](O)C3)co2)ccn1` [Example 33, (S)—N—(1-cyclopropyl-5-(3-hydroxypyrrolidin-1-yl)-1H-indazol-6-yl)-2-(2-methylpyridin-4-yl)oxazole-4-carboxamide hydrochloride], the inhibition at 0.1 µM was 25%, the inhibition at 1 µM came out at 87% and the IC50 was 100 to 250 nM.
